Experimental data: patent US9986723B2, “Screen and use of therapeutics for pancreatic ductal adenocarcinoma” (The Board of Regents of the University of Texas System, priority 2014, dated 2018)

Columns and labels:
[1] = system: C5LM2 cells; experiment: Liver metastases after intrasplenic tumor cell injection; format: in vivo, mouse; settings: warfarin 1 mg/L, pre or post (48 hrs) tumor cell injection
Procedure: FIGS. 25A-I. Axl inhibition reduces colony formation and enhances chemotherapy. (FIGS. 25A-C) parental Mia PaCa-2 cells or Mia PaCa-2 cells stably transfected with shRNA targeting Axl (Mia shAxl) were grown as spheroids in matrigel for 7 days in the presence or absence of warfarin (200 ng/ml), n=4/condition. Mia PaCa-2 cell colonies form large stellate colonies characteristic of invasive tumor growth. Colonies and cognate cell projections were imaged (FIG. 25A) with a Nikon Phase contrast microscope using 40× and 200× magnification. Mean total colony number (FIG. 25B) and total colony area+/−s.d. (FIG. 25C) reflective of invasive growth were calculated using Image J image analysis. […] (FIG. 25E) liver metastases were quantified after intrasplenic injection of C5LM2 cells. […] Mice were sacrificed when control treated animals were moribund and primary and metastatic burden was determined. […]
Animal studies. […] Mice with established tumors, as determined by sonography were randomized to receive normal drinking water or water containing 1 mg/L (˜3.0 μM) warfarin for experiments in immunocompromised mice and 0.5 mg/L (˜1.5 μM) in experiments in immunocompetent animals with or without gemcitabine 25 mg/kg twice weekly depending on experimental design. […] Metastatic incidence was determined by visual inspection of the liver and abdominal cavity and confirmed by H&E of liver sections. […]

[2] = system: Gas6; experiment: Gas6 γ-carboxylation in conditioned media of HEK293 cells expressing recombinant Gas6 (immunoblot); format: cell-based; settings: Vitamin K + warfarin, in vitro
Procedure: (FIG. 24A) HEK293 cells engineered to stably express recombinant Gas6 were grown in the presence of Vitamin K or Vitamin K+warfarin. Gas6 levels and γ-carboxylation were assayed by immunoblotting conditioned media. Conditioned media from untransfected HEK293 cells was used as a negative control. (FIG. 24B) Panc1 cells were grown overnight in media with 1% serum with no additions (NT), warfarin (2 μM) or BGB324 (2 μM). Lysates were probed for total Axl (tAxl) and phosphorylated Axl (pAxl). (FIG. 24C) Panc1 cells were grown in the presence of control media, Vitamin K, warfarin or warfarin+Vitamin K. The level of phosphorylated Axl (pAXL, red) was determined by immunofluorescence. (FIG. 24D) Panc1 cells were grown overnight in media with 1% serum with no additions (control), warfarin (1 μM), Gas6 (1.3 nM) or Gas6+warfarin. Lysates were probed for phosphorylated Akt (pAkt) and actin. (FIG. 24E) Lysates from Panc1 tumors harvested from mice treated with control or warfarin were probed for expression of tAxl, pAxl, actin, pAKT, tAKT, and cleaved Parp. (FIG. 24F) The effect of warfarin on cell migration was assessed by a ‘scratch’ assay. Monolayers of the indicted cells were wounded with a pipet tip. The cells were incubated in media containing 2% serum+/−warfarin (2 μM) or media containing 2% serum+Gas6 (1.3 nM)+/−warfarin.

[3] = system: Mia PaCa-2 cells; experiment: Mesenchymal/epithelial markers by ICC; format: cell-based, human; settings: warfarin, in vitro
Procedure: FIGS. 31A-B. Maintenance of mesenchymal phenotype is Axl dependent and inhibited by warfarin. (FIGS. 31A-B) Mia PaCa-2 cells were grown in 1% serum containing media the absence (Control) or presence of warfarin (2 μM) overnight. Cells were assessed for expression of phosphorylated Axl, nuclear Zeb1 (FIG. 31A) and vimentin and E-cadherin (FIG. 31B) by ICC. […] (FIG. 31B) Representative images of Vimentin and E-Cadherin expression are shown, total magnification 400×. Images were analyzed using Elements software. Welch's t-test*, p<0.05; **, p<0.01 vs control.
Signaling and functional assays. Cells were grown to confluence in […] or 4 well chamber slides and treated overnight with low serum (1-2%) media+/−warfarin (2 μM) or 10C9 (1.1 μM, 168 μg/ml) overnight. Cells were subsequently analyzed by western blot or immunocytochemsitry (ICC).

CC(=O)CC(c1ccccc1)c1c(O)c2ccccc2oc1=O (racemic) [Warfarin]
liver colonization after intrasplenic injection [1]: inhibited liver colonization
γ-carboxylation of Gas6 [2]: prevented
expression of the epithelial marker E-cadherin [3]: elevating
pAxl levels, surface Axl expression, Zeb1 and vimentin [3]: reduced
